Test results reported in EP4678638A1, “NEW E3 UBIQUITIN LIGASE LIGAND, PROTEIN DEGRADATION AGENT AND USE THEREOF” (priority 2023, dated 2024).

tested on: H1975; assay: CCK-8 proliferation, NCI-H1975 (H1975); type: cell-based, Human; conditions: Homo sapiens, NCI-H1975; CCK-8; 96 hours; read-out: Inhibitory activity (IC50) on tumor cell proliferation, H1975
Description: The tumor cells used herein were cultured in a cell culture medium listed in table A1 at 37°C in an incubator with 5% CO2. Prior to experimentation, all cell lines used were correctly identified by STR profiling, and tested negative for mycoplasma contamination using a mycoplasma detection kit through routine screenings. Table A1. Tumor cells and cell culture medium used in the present disclosure
IC50 values of the compounds of the present disclosure (including the compounds in Table 1, and compounds of examples) were measured using the Meilun Cell Counting Kit-8 kit from Dalian Meilun Biotech Co., Ltd. Assay details are as follows: tumor cells were seeded in a 96-well plate at a density listed in Table A2. After 24h, 100 µL of the inoculated cells were treated with 0.5µL of the compounds of the present disclosure (including the compounds in Tables 1 and 2, and compounds of examples) at 10 different successively decreasing concentrations (starting at the highest concentration of 10µM; 5-fold serial dilutions). After the cells were treated with the compounds of the present disclosure for a period of time, the cell viability detection reagent was added to the culture medium for cell viability assessment according to the instructions provided with the CCK-8 kit. […] The growth inhibition of the compounds of the present disclosure on cells was plotted by Prism Graphpad software, and the IC50 values of the compounds of the present disclosure were calculated therefrom. […] Seeding protocol and treatment time for tumor cells

Structure (SMILES)	IC50
O=C1CCC(c2ccc(CN3C[C@H]4C[C@@H]3CN4c3ccc(-c4cc(F)c5c(c4)C(=O)N(C(C(=O)Nc4nccs4)c4ncn6c4CCC6)C5)cc3)cc2)C(=O)N1 (stereo partly drawn) [GT-06176, 2-(6,7-dihydro-5H-pyrrolo[1,2-c]imidazol-1-yl)-2-(6-(4-((1R,4R)-5-(4-(2,6-dioxopiperidin-3-yl)benzyl)-2,5-diazabicyclo[2.2.1]heptan-2-yl)phenyl)-4-fluoro-1-oxoisoindolin-2-yl)-N-(thiazol-2-yl)acetamide]	1 to 10 nM
O=C1CCC(Nc2cccc(CN3C[C@H]4C[C@@H]3CN4c3ccc(-c4cc(F)c5c(c4)C(=O)N(C(C(=O)Nc4nccs4)c4ncn6c4CCC6)C5)cc3)c2)C(=O)N1 (stereo partly drawn) [GT-06179, 2-(6,7-dihydro-5H-pyrrolo[1,2-c]imidazol-1-yl)-2-(6-(4-((1R,4R)-5-(3-((2,6-dioxopiperidin-3-yl)amino)benzyl)-2,5-diazabicyclo[2.2.1]heptan-2-yl)phenyl)-4-fluoro-1-oxoisoindolin-2-yl)-N-(thiazol-2-yl)acetamide]	10 to 50 nM
O=C1CCN(c2ccc(CN3C[C@H]4C[C@@H]3CN4c3ccc(-c4cc(F)c5c(c4)C(=O)N(C(C(=O)Nc4nccs4)c4ncn6c4CCC6)C5)cc3)cn2)C(=O)N1 (stereo partly drawn) [GT-06191, 2-(6,7-dihydro-5H-pyrrolo[1,2-c]imidazol-1-yl)-2-(6-(4-((1R,4R)-5-((6-(2,4-dioxotetrahydropyrimidin-1(2H)-yl)pyridin-3-yl)methyl)-2,5-diazabicyclo[2.2.1]heptan-2-yl)phenyl)-4-fluoro-1-oxoisoindolin-2-yl)-N-(thiazol-2-yl)acetamide]	1 to 10 nM
O=C1CCC(c2ccc(CN3C4CCC3CN(c3ccc(-c5cc(F)c6c(c5)C(=O)N(C(C(=O)Nc5nccs5)c5ncn7c5CCC7)C6)cc3)C4)cc2)C(=O)N1 (stereo not drawn) [GT-06252, 2-(6,7-dihydro-5H-pyrrolo[1,2-c]imidazol-1-yl)-2-(6-(4-(8-(4-(2,6-dioxopiperidin-3-yl)benzyl)-3,8-diazabicyclo[3.2.1]octan-3-yl)phenyl)-4-fluoro-1-oxoisoindolin-2-yl)-N-(thiazol-2-yl)acetamide]	1 to 10 nM
O=C1CCN(c2ccc(CN3C4CCC3CN(c3ccc(-c5cc(F)c6c(c5)C(=O)N(C(C(=O)Nc5nccs5)c5ncn7c5CCC7)C6)cc3)C4)nc2)C(=O)N1 (stereo not drawn) [GT-06255, 2-(6,7-dihydro-5H-pyrrolo[1,2-c]imidazol-1-yl)-2-(6-(4-(8-((5-(2,4-dioxotetrahydropyrimidin-1(2H)-yl)pyridin-2-yl)methyl)-3,8-diazabicyclo[3.2.1]octan-3-yl)phenyl)-4-fluoro-1-oxoisoindolin-2-yl)-N-(thiazol-2-yl)acetamide]	1 to 10 nM
O=C1CCN(c2ccc(CN3CCC(N4CCN(c5ccc(-c6cc(F)c7c(c6)C(=O)N(C(C(=O)Nc6nccs6)c6ncn8c6CCC8)C7)cc5)CC4)CC3)cc2)C(=O)N1 (stereo not drawn) [GT-06327, 2-(6,7-dihydro-5H-pyrrolo[1,2-c]imidazol-1-yl)-2-(6-(4-(4-(1-(4-(2,4-dioxotetrahydropyrimidin-1(2H)-yl)benzyl)piperidin-4-yl)piperazin-1-yl)phenyl)-4-fluoro-1-oxoisoindolin-2-yl)-N-(thiazol-2-yl)acetamide]	1 to 10 nM
O=C1CCN(c2cccc(CN3CCC(N4CCN(c5ccc(-c6cc(F)c7c(c6)C(=O)N(C(C(=O)Nc6nccs6)c6ncn8c6CCC8)C7)cc5)CC4)CC3)c2)C(=O)N1 (stereo not drawn) [GT-06328, 2-(6,7-dihydro-5H-pyrrolo[1,2-c]imidazol-1-yl)-2-(6-(4-(4-(1-(3-(2,4-dioxotetrahydropyrimidin-1(2H)-yl)benzyl)piperidin-4-yl)piperazin-1-yl)phenyl)-4-fluoro-1-oxoisoindolin-2-yl)-N-(thiazol-2-yl)acetamide]	1 to 10 nM
O=C1CCN(c2cc(CN3CCN(c4ccc(-c5cc(F)c6c(c5)C(=O)N(C(C(=O)Nc5nccs5)c5ncn7c5CCC7)C6)cc4)CC3)c(F)cn2)C(=O)N1 (stereo not drawn) [GT-07378, 2-(6,7-dihydro-5H-pyrrolo[1,2-c]imidazol-1-yl)-2-(6-(4-(4-((2-(2,4-dioxotetrahydropyrimidin-1(2H)-yl)-5-fluoropyridin-4-yl)methyl)piperazin-1-yl)phenyl)-4-fluoro-1-oxoisoindolin-2-yl)-N-(thiazol-2-yl)acetamide]	1 to 10 nM
O=C1CCN(c2cc(CN3CCN(c4ccc(-c5cc(F)c6c(c5)C(=O)N(C(C(=O)Nc5nccs5)c5ncn7c5CCC7)C6)cc4)CC3)ccn2)C(=O)N1 (stereo not drawn) [GT-07379, 2-(6,7-dihydro-5H-pyrrolo[1,2-c]imidazol-1-yl)-2-(6-(4-(4-((2-(2,4-dioxotetrahydropyrimidin-1(2H)-yl)pyridin-4-yl)methyl)piperazin-1-yl)phenyl)-4-fluoro-1-oxoisoindolin-2-yl)-N-(thiazol-2-yl)acetamide]	1 to 10 nM
O=C1CCN(c2cncc(CN3CCN(c4ccc(-c5cc(F)c6c(c5)C(=O)N(C(C(=O)Nc5nccs5)c5ncn7c5CCC7)C6)cc4)CC3)c2)C(=O)N1 (stereo not drawn) [GT-07380, 2-(6,7-dihydro-5H-pyrrolo[1,2-c]imidazol-1-yl)-2-(6-(4-(4-((5-(2,4-dioxotetrahydropyrimidin-1(2H)-yl)pyridin-3-yl)methyl)piperazin-1-yl)phenyl)-4-fluoro-1-oxoisoindolin-2-yl)-N-(thiazol-2-yl)acetamide]	1 to 10 nM
O=C1CCC(c2ccc(CN3CCN(c4ccc(-c5cc(F)c6c(c5)C(=O)N(C(C(=O)Nc5nccs5)c5ncn7c5CCC7)C6)cc4)CC3)nc2)C(=O)N1 (stereo not drawn) [GT-07381, 2-(6,7-dihydro-5H-pyrrolo[1,2-c]imidazol-1-yl)-2-(6-(4-(4-((5-(2,6-dioxopiperidin-3-yl)pyridin-2-yl)methyl)piperazin-1-yl)phenyl)-4-fluoro-1-oxoisoindolin-2-yl)-N-(thiazol-2-yl)acetamide]	1 to 10 nM
CN(Cc1cc(N2CCC(=O)NC2=O)ncc1F)C1CCN(c2ccc(-c3cc(F)c4c(c3)C(=O)N(C(C(=O)Nc3nccs3)c3ncn5c3CCC5)C4)cc2)CC1 (stereo not drawn) [GT-07382, 2-(6,7-dihydro-5H-pyrrolo[1,2-c]imidazol-1-yl)-2-(6-(4-(4-(((2-(2,4-dioxotetrahydropyrimidin-1(2H)-yl)-5-fluoropyridin-4-yl)methyl)(methyl)amino)piperidin-1-yl)phenyl)-4-fluoro-1-oxoisoindolin-2-yl)-N-(thiazol-2-yl)acetamide]	10 to 50 nM
CN(Cc1cncc(N2CCC(=O)NC2=O)c1)C1CCN(c2ccc(-c3cc(F)c4c(c3)C(=O)N(C(C(=O)Nc3nccs3)c3ncn5c3CCC5)C4)cc2)CC1 (stereo not drawn) [GT-07384, 2-(6,7-dihydro-5H-pyrrolo[1,2-c]imidazol-1-yl)-2-(6-(4-(4-(((5-(2,4-dioxotetrahydropyrimidin-1(2H)-yl)pyridin-3-yl)methyl)(methyl)amino)piperidin-1-yl)phenyl)-4-fluoro-1-oxoisoindolin-2-yl)-N-(thiazol-2-yl)acetamide]	1 to 10 nM
CN(Cc1ccc(C2CCC(=O)NC2=O)cn1)C1CCN(c2ccc(-c3cc(F)c4c(c3)C(=O)N(C(C(=O)Nc3nccs3)c3ncn5c3CCC5)C4)cc2)CC1 (stereo not drawn) [GT-07385, 2-(6,7-dihydro-5H-pyrrolo[1,2-c]imidazol-1-yl)-2-(6-(4-(4-(((5-(2,6-dioxopiperidin-3-yl)pyridin-2-yl)methyl)(methyl)amino)piperidin-1-yl)phenyl)-4-fluoro-1-oxoisoindolin-2-yl)-N-(thiazol-2-yl)acetamide]	1 to 10 nM
O=C1CCN(c2cc(CN3C[C@H]4C[C@@H]3CN4c3ccc(-c4cc(F)c5c(c4)C(=O)N(C(C(=O)Nc4nccs4)c4ncn6c4CCC6)C5)cc3)ccn2)C(=O)N1 (stereo partly drawn) [GT-07387, 2-(6,7-dihydro-5H-pyrrolo[1,2-c]imidazol-1-yl)-2-(6-(4-((1R,4R)-5-((2-(2,4-dioxotetrahydropyrimidin-1(2H)-yl)pyridin-4-yl)methyl)-2,5-diazabicyclo[2.2.1]heptan-2-yl)phenyl)-4-fluoro-1-oxoisoindolin-2-yl)-N-(thiazol-2-yl)acetamide]	1 to 10 nM
O=C1CCC(c2cc(CN3CCN(c4ccc(-c5cc(F)c6c(c5)C(=O)N(C(C(=O)Nc5nccs5)c5ncn7c5CCC7)C6)cc4)CC3)ccn2)C(=O)N1 (stereo not drawn) [GT-07392, 2-(6,7-dihydro-5H-pyrrolo[1,2-c]imidazol-1-yl)-2-(6-(4-(4-((2-(2,6-dioxopiperidin-3-yl)pyridin-4-yl)methyl)piperazin-1-yl)phenyl)-4-fluoro-1-oxoisoindolin-2-yl)-N-(thiazol-2-yl)acetamide]	1 to 10 nM
O=C1CCC(c2cncc(CN3CCN(c4ccc(-c5cc(F)c6c(c5)C(=O)N(C(C(=O)Nc5nccs5)c5ncn7c5CCC7)C6)cc4)CC3)c2)C(=O)N1 (stereo not drawn) [GT-07472, 2-(6,7-dihydro-5H-pyrrolo[1,2-c]imidazol-1-yl)-2-(6-(4-(4-((5-(2,6-dioxopiperidin-3-yl)pyridin-3-yl)methyl)piperazin-1-yl)phenyl)-4-fluoro-1-oxoisoindolin-2-yl)-N-(thiazol-2-yl)acetamide]	1 to 10 nM
O=C1CCC(Nc2ncccc2CN2CCN(c3ccc(-c4cc(F)c5c(c4)C(=O)N(C(C(=O)Nc4nccs4)c4ncn6c4CCC6)C5)cc3)CC2)C(=O)N1 (stereo not drawn) [GT-07489, 2-(6,7-dihydro-5H-pyrrolo[1,2-c]imidazol-1-yl)-2-(6-(4-(4-((2-((2,6-dioxopiperidin-3-yl)amino)pyridin-3-yl)methyl)piperazin-1-yl)phenyl)-4-fluoro-1-oxoisoindolin-2-yl)-N-(thiazol-2-yl)acetamide]	10 to 50 nM
